{
  "source": "patent US9566240B2",
  "about": "“Compositions for multiphase, staggered, or sustained release of an active substance” (CLABBER GIRL CORPORATION, priority 2014, dated 2017)",
  "key": {"[1]": {"tested_on": "composited rumen contents", "test": "In vitro ruminal incubation: volatile fatty acid production", "description": "Each of the products was tested using in vitro ruminal incubation to determine the product's influence on ruminal pH, volatile fatty acid production in relation to changes in ruminal pH, and the associative effects of ruminal pH and volatile fatty acid on dry matter disappearance, starch disappearance, and neutral detergent fiber disappearance. Incubation solution containing water, composited rumen contents, and Van Soest buffer was placed in 1 L-incubation vessels (1 L oval deli cup with lid and Bunsen valve). Simulated feeding bags were obtained by placing 3 g of ground (Wiley Mill, 8 mm screen) total meal rations (10% alfalfa hay, 35% corn silage, 50% corn grain, and 5% vitamin/minerals) into 5 cm×10 cm bags with a pore size of 40 microns. Product 1 was added to each of eight replicate feeding bags in an amount at 0.2273 g/L. Product 2 was added to another set of eight replicate bags in an amount of 0.3704 g/L. Product 3 was added to another set of eight replicate bags in an amount of 0.5710 g/L. Control was added to another set of eight replicate bags in an amount of 0.1 g/L. A fifth set of eight replicate bags contained just the 3g of ground total meal rations to serve as a “Blank” control. To simulate twice-a-day-feeding, four replicates from each set of replicates were added to the incubation vessels at zero hours (0 H), and four more were added at twelve hours (12 H). The incubation vessels were placed into a temperature controlled, air jacketed, anaerobic incubator (39° C., and 20% carbon dioxide) for the duration of their assigned incubation time. Ruminal pH was measured during each incubation time. At zero hours and twelve hours, pH was also recorded before and after the simulated feeding. […] Dry matter disappearance, starch disappearance, and neutral detergent fiber disappearance were measured by removing replicate bags at the same hours the volatile fatty acid aliquots were taken, drying them in a forced-air oven at 60° C. to a constant weight, and storing them for future analysis. […] The first feeding was monitored for 12 hours (2, 6, and 12). Then the second feeding was monitored at 14 and 18 hours which corresponded to the 2 and 6 hours post-feeding."}, "[2]": {"tested_on": "composited rumen contents", "test": "In vitro ruminal incubation: ruminal pH", "conditions": "over a 24 hour feeding cycle", "description": "Each of the products was tested using in vitro ruminal incubation to determine the product's influence on ruminal pH, volatile fatty acid production in relation to changes in ruminal pH, and the associative effects of ruminal pH and volatile fatty acid on dry matter disappearance, starch disappearance, and neutral detergent fiber disappearance. Incubation solution containing water, composited rumen contents, and Van Soest buffer was placed in 1 L-incubation vessels (1 L oval deli cup with lid and Bunsen valve). Simulated feeding bags were obtained by placing 3 g of ground (Wiley Mill, 8 mm screen) total meal rations (10% alfalfa hay, 35% corn silage, 50% corn grain, and 5% vitamin/minerals) into 5 cm×10 cm bags with a pore size of 40 microns. […] Ruminal pH was measured during each incubation time. At zero hours and twelve hours, pH was also recorded before and after the simulated feeding. […] Dry matter disappearance, starch disappearance, and neutral detergent fiber disappearance were measured by removing replicate bags at the same hours the volatile fatty acid aliquots were taken, drying them in a forced-air oven at 60° C. to a constant weight, and storing them for future analysis."}, "[3]": {"tested_on": "composited rumen contents", "test": "In vitro ruminal incubation: dry matter, starch and neutral detergent fiber disappearance", "description": "Each of the products was tested using in vitro ruminal incubation to determine the product's influence on ruminal pH, volatile fatty acid production in relation to changes in ruminal pH, and the associative effects of ruminal pH and volatile fatty acid on dry matter disappearance, starch disappearance, and neutral detergent fiber disappearance.\nIncubation solution containing water, composited rumen contents, and Van Soest buffer was placed in 1 L-incubation vessels (1 L oval deli cup with lid and Bunsen valve). Simulated feeding bags were obtained by placing 3 g of ground (Wiley Mill, 8 mm screen) total meal rations (10% alfalfa hay, 35% corn silage, 50% corn grain, and 5% vitamin/minerals) into 5 cm×10 cm bags with a pore size of 40 microns. Product 1 was added to each of eight replicate feeding bags in an amount at 0.2273 g/L. Product 2 was added to another set of eight replicate bags in an amount of 0.3704 g/L. Product 3 was added to another set of eight replicate bags in an amount of 0.5710 g/L. Control was added to another set of eight replicate bags in an amount of 0.1 g/L. A fifth set of eight replicate bags contained just the 3g of ground total meal rations to serve as a “Blank” control.\nTo simulate twice-a-day-feeding, four replicates from each set of replicates were added to the incubation vessels at zero hours (0 H), and four more were added at twelve hours (12 H). The incubation vessels were placed into a temperature controlled, air jacketed, anaerobic incubator (39° C., and 20% carbon dioxide) for the duration of their assigned incubation time.\nRuminal pH was measured during each incubation time. At zero hours and twelve hours, pH was also recorded before and after the simulated feeding. Volatile fatty acid production was measured by taking 50 ml aliquots of the supernatant of each incubation vessel at 0, 2, 6, 12, 14, 18, and 24 hours, acidifying the aliquot with 5 ml of 50% HCl, and freezing it for future analysis. Dry matter disappearance, starch disappearance, and neutral detergent fiber disappearance were measured by removing replicate bags at the same hours the volatile fatty acid aliquots were taken, drying them in a forced-air oven at 60° C. to a constant weight, and storing them for future analysis.\nDry matter, starch, and neutral detergent fiber concentrations were measured at 2, 4, 6, 10, 12, 16, 18, and 22 hours of incubation. The measurements for starch disappearance and neutral detergent fiber disappearance were made at 2, 6, 16, and 22 hours of incubation. The early times were selected to monitor the faster degradation of starch, and the later times to monitor the slower degradation of neutral detergent fiber. […]"}, "[4]": {"conditions": "in vitro incubation, at the two peaks of 2 and 14 hours"}, "[5]": {"conditions": "in vitro incubation, overall values at 18 hours"}},
  "data": [
    {"smiles": "O=C([O-])O.[Na+]", "note": "[Control, sodium bicarbonate]", "values": [
      {"measurement": "total volatile fatty acids concentration", "setting": "[1]; at 18 H, after the second feeding (12 H), FIG. 4", "value": "higher concentration at 18 H compared to that of Product 2"},
      {"measurement": "ratio of even- to odd-numbered carbon chain VFAs, overall assessment", "setting": "[1]; from Table 3, high total VFA plus high propionic acid without decrease in acetic acid", "value": "superior to the other treatments"},
      {"measurement": "A:P Peaks (acetic acid to propionic acid ratio at peak concentrations)", "setting": "[1]; [4]", "value": 8.30},
      {"measurement": "AB:P Peaks (sum of acetic and butyric acid to propionic acid ratio at peak concentrations)", "setting": "[1]; [4]", "value": 9.39},
      {"measurement": "A:P (acetic acid to propionic acid ratio)", "setting": "[1]; [5]", "value": 11.61},
      {"measurement": "AB:P (sum of acetic acid and butyric acid to propionic acid ratio)", "setting": "[1]; [5]", "value": 12.50},
      {"measurement": "buffering of rumen pH", "setting": "[2]", "value": "only a “flash” neutralization that was soon dissipated"},
      {"measurement": "dry matter disappearance", "setting": "[3]; first 11 hours of the feeding cycle", "value": "little dry matter disappearance"},
      {"measurement": "dry matter disappearance", "setting": "[3]; in vitro incubations, FIG. 8", "value": "best results"},
      {"measurement": "starch disappearance", "setting": "[3]; in vitro incubations, FIG. 9", "value": "best results"},
      {"measurement": "neutral detergent fiber disappearance", "setting": "[3]; in vitro incubations, FIG. 10", "value": "higher neutral detergent fiber disappearance over Products 1, 2, and 3, and Blank"}
    ]}
  ]
}
